From patent US9807999B2, “Formulations” (priority 2010, dated 2017)

Tests used:
[1] = Solubility of active ingredients in solvents of the invention (equilibrated 4 weeks, supernatant analysed by gas chromatography)
Protocol: The resultant sample was mixed with a Whirlimixer™ and was then stored at 25° C. […] This procedure was repeated until the sample had equilibrated for 4 weeks following the final addition of either active ingredient or solvent.

[2] = Solubility of pesticides in propylene glycol benzoate compared with commonly used solvents; conditions: comparison in words; 20° C.
[3] = solvent propylene glycol benzoate (compound 1), 25° C., equilibrated 4 weeks
[4] = solvent butylene glycol benzoate (compound 2), 25° C., equilibrated 4 weeks

With COCCOCc1nc(C(F)(F)F)ccc1C(=O)C1=C(O)C2CCC(C2)C1=O (centres unmarked) [4-Hydroxy-3-[2-(2-methoxyethoxymethyl)-6-trifluoromethylpyridine-3-carbonyl]-bicyclo[3.2.1]oct-3-en-2-one] the “Solubility in propylene glycol benzoate at 25° C.” value [1, 3] was 27.4 % w/w.

In the case of CO/C=C(/C(=O)OC)c1ccccc1Oc1cc(Oc2ccccc2C#N)ncn1 [Azoxystrobin], the “Solubility in butylene glycol benzoate at 25° C.” value [1, 4] is reported as 8.1 % w/w, the “Solubility in propylene glycol benzoate at 25° C.” value [1, 3] is reported as 5.5 % w/w and the “Solubility in propylene glycol benzoate relative to a series of commonly used solvents” value [2] is reported as “higher”.

For N#Cc1c(Cl)c(Cl)c(Cl)c(C#N)c1Cl [Chlorothalonil], the “Solubility in propylene glycol benzoate at 25° C.” value [1, 3] was 1.32 % w/w and the “Solubility in propylene glycol benzoate relative to a series of commonly used solvents” value [2] was “lower”.

For CC(C1CC1)C(O)(Cn1cncn1)c1ccc(Cl)cc1 (centres unmarked) [Cyproconazole], the “Solubility in butylene glycol benzoate at 25° C.” value ([1]; 4 weeks) was 6.9 % w/w and the “Solubility in propylene glycol benzoate at 25° C.” value ([1]; 4 weeks) was 4.5 % w/w.

In the case of CC(C)C1C2CCC1c1c(NC(=O)c3cn(C)nc3C(F)F)cccc12 (centres unmarked) [Isopyrazam], the “Solubility in butylene glycol benzoate at 25° C.” value [1, 4] is reported as 12.4 % w/w, the “Solubility in propylene glycol benzoate at 25° C.” value [1, 3] is reported as 12.7 % w/w and the “Solubility in propylene glycol benzoate relative to a series of commonly used solvents” value [2] is reported as “higher”.
